Assay results: US6609014B1, “Use of PDT to inhibit intimal hyperplasia” (QLT Inc., priority 1999, dated 2003)
Where “and” joins values, the source holds several entries; their conditions need not be identical. Equal values may be shown once.

Columns and labels:
[1] = system: intimal hyperplasia in the vein of AV fistulae between the carotid artery and internal jugular vein; assay: One-month dose optimization: PDT of bilateral end-to-side AV fistulae, morphometric analysis of vein cross-sections; type: in vivo, Domestic swine; parameters: key to PDT-treated fistula thrombosed (T) / PDT-treated fistula thrombosed: T = thrombosed; details: for Percent Lumen Compromised by Intimal Hyperplasia, PDT, Block #1 / Percent Lumen Compromised by Intimal Hyperplasia, PDT, Block #2 / Percent Lumen Compromised by Intimal Hyperplasia, Control-PDT, Block #1, Mean / Percent Lumen Compromised by Intimal Hyperplasia, Control-PDT, Block #2, Mean / Percent Lumen Compromised by Intimal Hyperplasia, PDT, Block #2, Mean / Percent Lumen Compromised by Intimal Hyperplasia, PDT, Block #1, Mean / PDT-treated fistula thrombosed (T) / Percent Lumen Compromised by Intimal Hyperplasia, Control-PDT, Block #1 / Percent Lumen Compromised by Intimal Hyperplasia, Control-PDT, Block #2: 40 min OR lamp light
Description: Domestic swine (male, 40-50 kg) were used for experiments related to the present invention. Extensive research has been performed to characterize the changes leading to intimal hyperplasia (IH) in the arteries and veins of swine, which closely resemble those in humans (22). AV fistulae were created in several pigs to confirm that measurable IH developed in the vein, just distal to the anastomoses, within one month (FIG. 1A).
Pigs were recovered and left for four weeks at which time they were exsanguinated and perfused with 10% formalin. The fistulae were surgically excised for processing and wax embedding for histology (FIGS. 1A and 2). Wax blocks containing the fistulae were cut to provide sections containing a cross-section of the anastomoses, including the artery and vein distal to the sutures (FIGS. 1A, 1B, and 3).
A porous balloon catheter was introduced into the lumen of veins to deliver either 2 mL of BPD-MA (diluted in 5% dextrose in water) or 5% dextrose in water (control), at a delivery pressure of 2 mm Hg. Two minutes later, the photosensitizer (or dextrose) was rinsed out with heparinized saline before light exposure.
The adventitia of the vein was exposed to the operating room (OR) lamp light for 40 minutes (a combination of incandescent bulbs and fluorescence tubes—approximately 1 J/cm^2).
Measurements and observations were made by morphometric analysis of cross-sections of fistulae stained with Verhoeff's elastic to assess the integrity of the vessel wall and also clearly demarcate the internal elastic lamina (IEL) for the measurement of IH. Areas within the lumen and those circumscribed by the internal elastic lamina (IEL) and the external elastic lamina (EEL) were measured directly using the Optimas (Optimas Corporation, Bothell, Wash., USA) program. The areas of the intima and the media were calculated by subtraction: intimal area equals the […], and medial area equals EEL area minus IEL area.
Statistical analysis was conducted using the two tailed t-Test (two-sample assuming unequal variances) for comparisons between groups of PDT-treated and control fistulae and paired t-tests for paired comparisons of PDT-treated and control fistulae.
End-to-side AV fistulae between the carotid artery and internal jugular vein were treated at four different BPD-MA doses (0.015, 0.15, 0.5 & 1.5 mg/2 mL) and exposed to 40 minutes of operating room (OR) lamp and ambient light to determine the optimal doses required to inhibit IH while causing minimal damage to the vein wall. Bilateral AV fistulae were created. For example, one side was treated with saline and 40 min. OR lamp light, while the other side was treated with BPD-MA (0.015 mg/2 mL or the other doses) and 40 min. OR lamp light after creating the anastomoses. At least six pigs were treated using each BPD-MA dose and the 40 minutes OR lamp light delivery system.
Optimization of PS and radiation dose was performed. Bilateral end-to-side AV fistula between the carotid artery and jugular vein were created in 29 pigs. Animals were sacrificed 4 weeks after PDT, and the fistulae were surgically excised and processed for histology. Computer-assisted measurement of the lumen area and,the area delimited by the internal elastic lamina (IEL) and external elastic lamina (EEL) was performed on 5 sections of the vein. The IH was calculated by subtracting the lumen area from the […]. Medial hyperplasia was calculated by subtracting the IEL area from the EEL area.
For each fistula, the percent of the lumen compromised by the intima hyperplasia (%LCIH=IEL−Lumen/IEL) was calculated for the first two complete blocks from the tip of the anastomosis, since IH is most often observed clinically within 1 cm of the anastomosis. Differences in the % LCIH between control and treated sides were averaged for each dose group. Results are presented in Tables 1 a and 1b as well as illustrated in FIGS. 2 and 3.

[2] = system: endothelial lining of the vein lumen; assay: von Willebrand factor immunostaining of AV fistula veins 48 hours after PDT; type: in vivo, Domestic swine; details: low-dose PDT
Description: In Example 4, the cell content of the vein wall was also examined using immunohistochemical techniques to detect SMCs (mouse anti-human ax-smooth muscle actin, clone 1A4 (Dako, Mississauga, Canada)), macrophages (mouse monoclonal anti-human monocyte/macrophage, clone MAC 387 (Serotec Inc.), T cells (Rabbit anti-human CD3 with Neo marker), and endothelial cells (rabbit polyclonal anti-human von Willebrand Factor (Dako, Mississauga, Canada)). SMCs were counted using the Optimas image analysis program and macrophages were counted manually using Image Pro Plus 3 (Media Cybernetics, Silver Spring, Md., USA).
For the purposes of determining the early cellular effects of PDT on the vein, bilateral AV fistulae were created in six pigs and treated sides were given 0.15 mg BPD-MA (0.15 mg/2 mL) and 40 minutes OR light. After 48 hours these pigs were sacrificed and the fistulae were recovered and processed for histological evaluation. This is not enough time for IH to have developed, but the cellular activation which leads to IH may be detectable. […] Immunocytochemistry for the proliferating cell nuclear antigen (PCNA) was used to assess cell proliferation in the tissue (Table 3).
Immunocytochemical staining for von Willebrand factor was performed to characterize the effects of PDT on the endothelial lining of the vein lumen. […]

[3] = 0.015 mg BPD-MA/2 mL into vein lumen, one month, individual pigs
[4] = 0.015 mg BPD-MA/2 mL, one month, group mean
[5] = 0.015 mg BPD-MA/2 mL, one month, individual pigs
[6] = 0.15 mg BPD-MA, OR lamp, one month, group mean
[7] = 0.15 mg BPD-MA, OR lamp, one month, individual pigs
[8] = 0.15 mg BPD-MA/2 mL into vein lumen, one month, individual pigs
[9] = 0.15 mg BPD-MA/2 mL, one month, group mean
[10] = 0.15 mg BPD-MA/2 mL, one month, individual pigs
[11] = 0.15 mg BPD-MA, one month, relative to control mean
[12] = 0.15 mg BPD-MA, one month, treated vs control fistulae
[13] = 0.5 mg BPD-MA/2 mL into vein lumen, one month, individual pigs
[14] = 0.5 mg BPD-MA/2 mL, one month, group mean
[15] = 0.5 mg BPD-MA/2 mL, one month, individual pigs
[16] = 1.5 mg BPD-MA/2 mL into vein lumen, one month, individual pigs
[17] = 1.5 mg BPD-MA/2 mL, one month, group mean
[18] = 1.5 mg BPD-MA/2 mL, one month, individual pigs

Substance: benzoporphyrin derivative monoacid ring A [BPD-MA]
- Percent Lumen Compromised by Intimal Hyperplasia, PDT, Block #1 [1, 3]: 3.1% and 21.3% and 9% and 30.3% and 3.4% and 2.2%
- Percent Lumen Compromised by Intimal Hyperplasia, PDT, Block #2 [1, 3]: 2.4% and 2.3% and 5% and 13% and 8.6% and 1.8%
- Percent Lumen Compromised by Intimal Hyperplasia, Control-PDT, Block #1, Mean [1, 4]: 1.5%
- Percent Lumen Compromised by Intimal Hyperplasia, Control-PDT, Block #2, Mean [1, 4]: 2.9%
- Percent Lumen Compromised by Intimal Hyperplasia, PDT, Block #2, Mean ([1]; 0.015 mg BPD-MA/2 mL, one month, group mean, p = 0.36 vs control): 5.5%
- Percent Lumen Compromised by Intimal Hyperplasia, PDT, Block #1, Mean ([1]; 0.015 mg BPD-MA/2 mL, one month, group mean, p = 0.39 vs control): 11.6%
- PDT-treated fistula thrombosed (T) [1, 5]: T
- Percent Lumen Compromised by Intimal Hyperplasia, Control-PDT, Block #1 [1, 5]: −0.2% and 10.2% and −4% and −27.2% and 24.9% and 5.3%
- Percent Lumen Compromised by Intimal Hyperplasia, Control-PDT, Block #2 [1, 5]: −0.2% and 27.1% and −2% and −6.5% and −1.9% and 0.9%
- Change in amount of IH between control and treated veins ([1]; 0.015 mg BPD-MA, one month): little change
- Percent Medial Hyperplasia, PDT, Block #1, Mean [1, 6]: 10.0%
- Percent Medial Hyperplasia, PDT, Block #2, Mean [1, 6]: 11.5%
- PDT-treated fistula thrombosed [1, 7]: T
- Percent Medial Hyperplasia, PDT, Block #1 [1, 7]: 5.9% and 15.3% and 6.2% and 12.5% and 9.8%
- Percent Medial Hyperplasia, PDT, Block #2 [1, 7]: 10.3% and 5.7% and 18.2% and 9.8% and 13.7%
- Percent Lumen Compromised by Intimal Hyperplasia, PDT, Block #1 [1, 8]: 7.1% and 19.3% and 4.6% and 9.2% and 6.9% and 21.1%
- Percent Lumen Compromised by Intimal Hyperplasia, PDT, Block #2 [1, 8]: 7% and 9.1% and 6.7% and 2.5% and 3.6% and 8.6%
- Percent Lumen Compromised by Intimal Hyperplasia, Control-PDT, Block #1, Mean [1, 9]: 7.0%
- Percent Lumen Compromised by Intimal Hyperplasia, Control-PDT, Block #2, Mean [1, 9]: 9.25%
- Percent Lumen Compromised by Intimal Hyperplasia, PDT, Block #2, Mean ([1]; 0.15 mg BPD-MA/2 mL, one month, group mean, p = 0.06 vs control): 6.3%
- Percent Lumen Compromised by Intimal Hyperplasia, PDT, Block #1, Mean ([1]; 0.15 mg BPD-MA/2 mL, one month, group mean, p = 0.095 vs control): 11.4%
- PDT-treated fistula thrombosed (T) [1, 10]: T
- Percent Lumen Compromised by Intimal Hyperplasia, Control-PDT, Block #1 [1, 10]: 24.2% and −1.5% and 8.2% and −2.9%
- Percent Lumen Compromised by Intimal Hyperplasia, Control-PDT, Block #2 [1, 10]: 2.7% and 14.8% and 0.5% and 19%
- Relative reduction of intimal hyperplasia (mean PDT-induced decrease), first block [1, 11]: 38%
- Relative reduction of intimal hyperplasia (mean PDT-induced decrease), second block [1, 11]: 55%
- Reduction in % LCIH, first block [1, 12]: 7.0%
- Reduction in % LCIH, second block [1, 12]: 9.3%
- Difference in medial thickness between PDT-treated and control samples, block 2 ([1]; 0.15 mg/2 mL, one month): little difference
- Difference in medial thickness between PDT-treated and control samples, first block ([1]; 0.15 mg/2 mL, one month): 44%
- Percent Lumen Compromised by Intimal Hyperplasia, PDT, Block #1 [1, 13]: 18.1% and 16.6% and 32.0%
- Percent Lumen Compromised by Intimal Hyperplasia, PDT, Block #2 [1, 13]: 11.2% and 6.8% and 3.4%
- Percent Lumen Compromised by Intimal Hyperplasia, Control-PDT, Block #1, Mean [1, 14]: 0.5%
- Percent Lumen Compromised by Intimal Hyperplasia, Control-PDT, Block #2, Mean [1, 14]: 0.9%
- Percent Lumen Compromised by Intimal Hyperplasia, PDT, Block #1, Mean [1, 14]: 22.2%
- Percent Lumen Compromised by Intimal Hyperplasia, PDT, Block #2, Mean [1, 14]: 7.1%
- PDT-treated fistula thrombosed (T) [1, 15]: T
- Percent Lumen Compromised by Intimal Hyperplasia, Control-PDT, Block #1 [1, 15]: −13.0% and 5.1% and 9.4%
- Percent Lumen Compromised by Intimal Hyperplasia, Control-PDT, Block #2 [1, 15]: −8.3% and 2.1% and 9.0%
- Difference in IH between treated and control fistulae ([1]; 0.5 mg BPD-MA, one month): Little difference
- Percent Lumen Compromised by Intimal Hyperplasia, PDT, Block #1 [1, 16]: 19.4% and 17.4% and 21.6% and 41.8% and 12.7%
- Percent Lumen Compromised by Intimal Hyperplasia, PDT, Block #2 [1, 16]: 43.0% and 1.7% and 11.7% and 53.8% and 13.9%
- Percent Lumen Compromised by Intimal Hyperplasia, Control-PDT, Block #1, Mean [1, 17]: −14.9%
- Percent Lumen Compromised by Intimal Hyperplasia, Control-PDT, Block #2, Mean [1, 17]: −23.6%
- Percent Lumen Compromised by Intimal Hyperplasia, PDT, Block #1, Mean [1, 17]: 22.6%
- Percent Lumen Compromised by Intimal Hyperplasia, PDT, Block #2, Mean [1, 17]: 24.8%
- PDT-treated fistula thrombosed (T) [1, 18]: T
- Percent Lumen Compromised by Intimal Hyperplasia, Control-PDT, Block #1 [1, 18]: −0.7% and −13.7% and −38.9% and −6.2%
- Percent Lumen Compromised by Intimal Hyperplasia, Control-PDT, Block #2 [1, 18]: −37.9% and 5.1% and −49.9% and −11.8%
- Effect on IH ([1]; 1.5 mg dose BPD-MA, one month): appeared to induce IH
- Effect on development of IH, high doses ([1]; PDT with high doses of BPD-MA): either did not modulate the development of IH or actually induced IH
- Thrombogenicity of vessel wall, high doses ([1]; PDT with high doses of BPD-MA, one month): appeared to render the vessel wall more thrombogenic
- Percent IH in PDT-treated vs control fistulae, responders only ([1]; all animals 0.015 to 1.5 mg/2 ml BPD-MA, excluding those with less than 10% IH in control fistulae, Block 1 p=0.03, Block 2 p=0.02): significantly less
- Average one-month thrombosis incidence, PDT-treated fistulae ([1]; all doses (0.015-1.5 mg/2 mL BPD-MA), control fistulae 26.0%): 26.6%
- Effect on IH at the anastomosis of arteriovenous grafts, low doses ([1]; low doses (0.15 mg/2 ml) locally delivered BPD-MA, ambient light from operating room lamps): resulted in the reduction of IH
- Incidence of thrombosis, low-dose PDT ([1]; low-dose PDT, one month): not associated with an increase in the incidence of thrombosis
- Effect of PDT on medial thickening ([1]; one month): did not affect medial thickening
- Number of fistulae that thrombosed vs drug dose ([1]; one month, 0.015-1.5 mg/2 mL): correlated roughly with increasing drug dose
- Statistical significance of differences in intimal thickening between PDT-treated and control veins ([1]; one month, marked with some doses (0.15 mg)): not statistically significant
- Damage to endothelial cell lining of treated veins [2]: did not appear to damage the endothelial cell lining
